From patent US5798336A, “Antimicrobial peptides” (priority 1995, dated 1998) come the findings set out here.

The subject of assay [1] is N. gonorrhoeae strain WS1.
The next assay has as its system S. aureus strain 8325-4. To be noted: strain 8325-4, 500.

Read-outs that look alike come from different tables or passages of the source. Where a SMILES comes first, the peptide text is derived from it.

In the case of `CC[C@H](C)[C@H](NC(=O)[C@H](CC(N)=O)NC(=O)[C@H](Cc1c[nH]cn1)NC(=O)[C@H](C)NC(=O)CNC(=O)[C@H](CC(C)C)NC(=O)[C@@H](NC(=O)[C@@H](NC(=O)[C@H](CC(N)=O)NC(=O)[C@@H](NC(=O)[C@H](CC(N)=O)NC(=O)[C@H](CO)NC(=O)CNC(=O)[C@H](Cc1c[nH]c2ccccc12)NC(=O)[C@H](CS)NC(=O)[C@H](Cc1c[nH]cn1)NC(=O)[C@H](C)NC(=O)[C@H](C)NC(=O)[C@@H](N)[C@@H](C)O)[C@@H](C)CC)C(C)C)[C@@H](C)O)C(=O)N[C@@H](CCC(N)=O)C(=O)O` [CG 41-60] (H-TAAHCWGSNINVTLGAHNIQ-OH), the “Log Kill (500 μg/ml) P. aeruginosa ATCC 27853” value with P. aeruginosa ATCC 27853 (ATCC 27853, 500) came to 0.5 log. The “Log Kill (500 μg/ml) N. gonorrhoeae strain WS1” value in assay [1] (strain WS1, 500) is reported as -0.09 log.
As to `CSCC[C@H](NC(=O)[C@H](CO)NC(=O)[C@@H](NC(=O)[C@H](CCCNC(=N)N)NC(=O)CNC(=O)[C@H](Cc1c[nH]c2ccccc12)NC(=O)CNC(=O)[C@H](C)NC(=O)[C@@H](NC(=O)[C@@H](NC(=O)[C@H](CS)NC(=O)[C@H](CC(C)C)NC(=O)[C@@H](NC(=O)CNC(=O)[C@@H]1CCCN1C(=O)[C@@H](N)CCCNC(=N)N)[C@@H](C)O)[C@@H](C)O)C(C)C)C(C)C)C(=O)N[C@@H](CCCNC(=N)N)C(=O)N[C@@H](CCCNC(=N)N)C(=O)NCC(=O)N[C@H](C(=O)O)[C@@H](C)O` [CG 117-136] (H-RPGTLCTVAGWGRVSMRRGT-OH), in the assay on P. aeruginosa ATCC 27853 (ATCC 27853, 500), the “Log Kill (500 μg/ml) P. aeruginosa ATCC 27853” value is 5.8 log and the “Log Kill (500 μg/ml) P. aeruginosa ATCC 278533” value turned out to be 5.88 log. For the same compound, in the assay on S. aureus strain 8325-4, the “Log Kill (500 μg/ml) S. aureus strain 8325-4” value is 5.34 log.
In the case of `CSCC[C@H](NC(=O)[C@H](CO)NC(=O)[C@@H](NC(=O)[C@H](CCCNC(=N)N)NC(=O)CNC(=O)[C@@H](N)Cc1c[nH]c2ccccc12)C(C)C)C(=O)N[C@@H](CCCNC(=N)N)C(=O)N[C@@H](CCCNC(=N)N)C(=O)NCC(=O)N[C@H](C(=O)O)[C@@H](C)O` [CG 127-136] (H-WGRVSMRRGT-OH), the “Log Kill (500 μg/ml) P. aeruginosa ATCC 27853” value with P. aeruginosa ATCC 27853 (ATCC 27853, 500) is recorded as 0.27 log. Moreover, the “Log Kill (500 μg/ml) N. gonorrhoeae strain WS1” value in assay [1] (strain WS1, 500) is reported as 3.20 log. Moreover, in the assay with S. aureus strain 8325-4, the “Log Kill (500 μg/ml) S. aureus strain 8325-4” value came out at 0 log.
Take `CC[C@H](C)[C@H](NC(=O)[C@H](C)NC(=O)[C@H](CCCNC(=N)N)NC(=O)[C@H](CCCNC(=N)N)NC(=O)[C@H](C)NC(=O)[C@@H](NC(=O)[C@@H](NC(=O)[C@H](Cc1c[nH]cn1)NC(=O)[C@H](CCC(N)=O)NC(=O)[C@H](CCC(N)=O)NC(=O)[C@@H](NC(=O)[C@H](CC(N)=O)NC(=O)[C@H](CCC(=O)O)NC(=O)[C@H](CCCNC(=N)N)NC(=O)[C@@H](N)CCCNC(=N)N)[C@@H](C)O)[C@@H](C)CC)[C@@H](C)O)C(=O)N[C@@H](CCCNC(=N)N)C(=O)N[C@@H](Cc1c[nH]cn1)C(=O)N1CCC[C@H]1C(=O)N[C@@H](CCC(N)=O)C(=O)N[C@@H](Cc1ccc(O)cc1)C(=O)O` [CG 61-80] (H-RRENTQQHITARRAIRHPQY-OH): the “Log Kill (500 μg/ml) P. aeruginosa ATCC 278533” value in the assay on P. aeruginosa ATCC 27853 (ATCC 27853, 500) stood at 5.15 log. In addition, in assay [1] (strain WS1, 500), the “Log Kill (500 μg/ml) N. gonorrhoeae strain WS1” value is on record as 0 log. Also, in the assay with S. aureus strain 8325-4, the “Log Kill (500 μg/ml) S. aureus strain 8325-4” value was 0.58 log.
For the compound `CC[C@H](C)[C@H](NC(=O)[C@H](CC(=O)O)NC(=O)[C@H](CC(N)=O)NC(=O)[C@H](CCC(N)=O)NC(=O)[C@@H](NC(=O)[C@@H](NC(=O)[C@H](CCCNC(=N)N)NC(=O)[C@H](CCC(N)=O)NC(=O)[C@H](CC(N)=O)NC(=O)[C@H](Cc1ccc(O)cc1)NC(=O)[C@H](CCC(N)=O)NC(=O)[C@@H]1CCCN1C(=O)[C@@H](N)Cc1c[nH]cn1)[C@@H](C)O)[C@@H](C)CC)C(=O)N[C@@H](CCSC)C(=O)N[C@@H](CC(C)C)C(=O)N[C@@H](CC(C)C)C(=O)N[C@@H](CCC(N)=O)C(=O)N[C@@H](CC(C)C)C(=O)N[C@@H](CO)C(=O)N[C@@H](CCCNC(=N)N)C(=O)O` [CG 77-96] (H-HPQYNQRTIQNDIMLLQLSR-OH), the “Log Kill (500 μg/ml) P. aeruginosa ATCC 27853” value in the assay with P. aeruginosa ATCC 27853 (ATCC 27853, 500) is 0.06 log. In addition, the “Log Kill (500 μg/ml) N. gonorrhoeae strain WS1” value in assay [1] (strain WS1, 500) was 0.24 log.
Consider `CC[C@H](C)[C@H](NC(=O)[C@H](CCC(N)=O)NC(=O)[C@H](CCCNC(=N)N)NC(=O)[C@H](CCCNC(=N)N)NC(=O)[C@@H]1CCCN1C(=O)[C@H](CC(=O)O)NC(=O)[C@H](Cc1ccc(O)cc1)NC(=O)[C@H](CO)NC(=O)CN)C(=O)N[C@@H](CS)C(=O)N[C@H](C(=O)NCC(=O)N[C@@H](CC(=O)O)C(=O)N[C@@H](CCCNC(=N)N)C(=O)N[C@@H](CCCNC(=N)N)C(=O)N[C@@H](CCC(=O)O)C(=O)N[C@@H](CCCNC(=N)N)C(=O)N[C@@H](CCCCN)C(=O)N[C@@H](C)C(=O)N[C@@H](C)C(=O)O)C(C)C` [CG 157-176] (H-GSYDPRRQICVGDRRERKAA-OH), for which the “Log Kill (500 μg/ml) P. aeruginosa ATCC 27853” value with P. aeruginosa ATCC 27853 (ATCC 27853, 500) is on record as 1.02 log. For the same compound, the “Log Kill (500 μg/ml) N. gonorrhoeae strain WS1” value in assay [1] (strain WS1, 500) is recorded as -0.18 log.
Regarding `CC[C@H](C)[C@H](NC(=O)CNC(=O)[C@H](Cc1c[nH]cn1)NC(=O)[C@H](C)NC(=O)[C@@H](NC(=O)[C@H](CC(N)=O)NC(=O)[C@H](CC(N)=O)NC(=O)[C@H](CS)NC(=O)[C@H](CC(C)C)NC(=O)[C@H](CC(C)C)NC(=O)[C@@H]1CCCN1C(=O)CNC(=O)CNC(=O)[C@H](CO)NC(=O)[C@H](CC(=O)O)NC(=O)CNC(=O)[C@H](CCCCN)NC(=O)[C@@H](N)Cc1ccccc1)C(C)C)C(=O)N[C@H](C(=O)N[C@@H](CO)C(=O)N[C@@H](Cc1ccc(O)cc1)C(=O)O)C(C)C` [CG 177-197] (H-FKGDSGGPLLCNNVAHGIVSY-OH), the “Log Kill (500 μg/ml) P. aeruginosa ATCC 27853” value with P. aeruginosa ATCC 27853 (ATCC 27853, 500) is listed as -0.79 log. Moreover, in assay [1] (strain WS1, 500), the “Log Kill (500 μg/ml) N. gonorrhoeae strain WS1” value turned out to be 0.68 log.
On the same counts, the results for `CC(C)C[C@H](NC(=O)[C@@H](NC(=O)[C@H](Cc1ccccc1)NC(=O)[C@H](CC(=O)O)NC(=O)[C@H](CCC(=O)O)NC(=O)[C@H](CCCNC(=N)N)NC(=O)[C@@H](NC(=O)[C@H](CC(C)C)NC(=O)[C@H](Cc1ccccc1)NC(=O)CNC(=O)CNC(=O)[C@H](CS)NC(=O)[C@H](CCCNC(=N)N)NC(=O)[C@H](CO)NC(=O)[C@H](CCC(N)=O)NC(=O)CNC(=O)[C@H](C)NC(=O)[C@@H]1CCCN1C(=O)[C@H](CO)NC(=O)[C@@H](N)CCC(N)=O)C(C)C)C(C)C)C(=O)O` [CG 21-40] (H-QSPAGQSRCGGFLVREDFVL-OH) are -0.034 log and 0.05 log.
On to `CC[C@H](C)[C@H](NC(=O)[C@H](CCCNC(=N)N)NC(=O)[C@H](CC(C)C)NC(=O)[C@H](CS)NC(=O)[C@H](CCC(N)=O)NC(=O)[C@H](CCCNC(=N)N)NC(=O)[C@H](CC(=O)O)NC(=O)[C@H](CCCNC(=N)N)NC(=O)[C@H](CCC(N)=O)NC(=O)[C@@H](NC(=O)[C@H](CCCNC(=N)N)NC(=O)[C@H](CC(C)C)NC(=O)[C@H](CCC(N)=O)NC(=O)[C@@H](NC(=O)[C@H](CCC(=O)O)NC(=O)[C@H](CCCNC(=N)N)NC(=O)[C@H](CC(C)C)NC(=O)[C@@H](NC(=O)[C@@H](N)CC(=O)O)[C@@H](C)O)C(C)C)C(C)C)C(=O)N[C@@H](Cc1ccccc1)C(=O)O` [CG 137-156] (H-DTLREVQLRVQRDRQCLRIF-OH), for which the “Log Kill (500 μg/ml) P. aeruginosa ATCC 27853” value in the assay on P. aeruginosa ATCC 27853 (Table 6, crude peptides 500 μg/ml, about 10^7 CFU/ml, 1/100 strength HBSS) stood at 0.01 log. Moreover, the “Log Kill (500 μg/ml) N. gonorrhoeae strain WS1” value in assay [1] (Table 6, crude peptides 500 μg/ml, 1/100 strength HBSS) was determined as 0.43 log.
